ChEMBL document CHEMBL5696442, “Discovery of type II inhibitors of TGFβ-activated kinase 1 (TAK1) and mitogen-activated protein kinase kinase kinase kinase 2 (MAP4K2)” (J Med Chem, 2015)
Active and inactive are the calls of the source. The rule behind the calls is not given here.

How the values were obtained:
[1] = biological target: 5'-AMP-activated protein kinase catalytic subunit alpha-1 (Homo sapiens) (UniProt Q13131); test: Inhibition of AMPKa1 Lys2 labeling site in human A-375 cells at 5 uM by KiNativ Profiling analysis relative to control; assay type: cell-based
Sequence of 5'-AMP-activated protein kinase catalytic subunit alpha-1 (Homo sapiens) (Q13131 whole entry, looked up): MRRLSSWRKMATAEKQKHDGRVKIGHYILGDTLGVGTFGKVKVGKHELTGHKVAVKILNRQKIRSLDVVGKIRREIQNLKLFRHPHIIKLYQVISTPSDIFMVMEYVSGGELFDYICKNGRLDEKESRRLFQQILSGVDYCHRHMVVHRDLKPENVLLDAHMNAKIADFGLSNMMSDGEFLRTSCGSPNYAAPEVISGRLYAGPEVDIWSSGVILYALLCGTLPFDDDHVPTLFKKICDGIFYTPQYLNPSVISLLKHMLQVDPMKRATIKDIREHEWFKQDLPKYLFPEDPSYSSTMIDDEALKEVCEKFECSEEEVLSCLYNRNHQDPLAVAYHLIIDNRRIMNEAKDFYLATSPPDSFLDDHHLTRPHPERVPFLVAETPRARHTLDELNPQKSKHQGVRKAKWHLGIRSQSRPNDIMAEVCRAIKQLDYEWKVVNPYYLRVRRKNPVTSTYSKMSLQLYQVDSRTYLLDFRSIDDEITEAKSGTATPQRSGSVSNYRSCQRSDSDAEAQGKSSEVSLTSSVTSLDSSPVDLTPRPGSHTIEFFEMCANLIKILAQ

[2] = system: Receptor-type tyrosine-protein kinase FLT3 (Homo sapiens), P36888 [R834Q]; test: Inhibition of FLT3 R834Q mutant (unknown origin) at 1 uM by Ambit Kinomescan binding assay relative to control; values are per cent of control
[3] = biological target: T1, Serine/threonine-protein kinase 3 (Homo sapiens) (UniProt Q13188); test: Inhibition of MST2 Lys1 labeling site in human A-375 cells at 0.5 uM by KiNativ Profiling analysis relative to control; assay type: cell-based
T1 sequence (whole entry): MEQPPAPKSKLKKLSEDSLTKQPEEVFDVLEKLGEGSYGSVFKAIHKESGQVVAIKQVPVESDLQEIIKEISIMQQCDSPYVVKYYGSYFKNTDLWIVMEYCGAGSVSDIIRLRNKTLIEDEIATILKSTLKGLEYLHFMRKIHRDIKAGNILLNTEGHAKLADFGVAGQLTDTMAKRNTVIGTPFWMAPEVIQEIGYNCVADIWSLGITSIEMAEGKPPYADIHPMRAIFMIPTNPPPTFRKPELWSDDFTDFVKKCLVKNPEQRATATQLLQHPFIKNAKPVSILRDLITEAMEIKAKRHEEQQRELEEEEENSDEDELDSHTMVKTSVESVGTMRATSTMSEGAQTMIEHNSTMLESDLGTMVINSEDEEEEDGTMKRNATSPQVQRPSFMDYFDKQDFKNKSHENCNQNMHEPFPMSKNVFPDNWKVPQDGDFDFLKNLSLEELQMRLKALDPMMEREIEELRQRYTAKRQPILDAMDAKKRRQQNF

[4] = biological target: T2, Scaffold protein ILK (Homo sapiens) (UniProt Q13418); test: Inhibition of ILK Lys1 labeling site in human A-375 cells at 0.05 uM by KiNativ Profiling analysis relative to control; assay type: cell-based
T2 sequence (whole entry): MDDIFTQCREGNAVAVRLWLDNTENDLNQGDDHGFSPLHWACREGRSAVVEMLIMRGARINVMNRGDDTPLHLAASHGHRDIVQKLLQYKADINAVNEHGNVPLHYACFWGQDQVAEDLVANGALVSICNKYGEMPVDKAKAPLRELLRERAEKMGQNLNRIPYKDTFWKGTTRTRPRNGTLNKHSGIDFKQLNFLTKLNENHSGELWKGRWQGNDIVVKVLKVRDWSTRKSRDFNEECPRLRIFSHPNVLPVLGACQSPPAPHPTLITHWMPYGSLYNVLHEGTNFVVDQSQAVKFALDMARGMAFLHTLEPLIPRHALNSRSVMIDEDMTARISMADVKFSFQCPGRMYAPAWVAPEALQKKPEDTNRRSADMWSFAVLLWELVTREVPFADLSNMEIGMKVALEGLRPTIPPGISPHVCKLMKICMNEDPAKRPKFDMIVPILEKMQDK

[5] = biological target: Serine/threonine-protein kinase RIO3 (Homo sapiens) (UniProt O14730); test: Inhibition of RIOK3 (unknown origin) at 1 uM by Ambit Kinomescan binding assay relative to control
Sequence of Serine/threonine-protein kinase RIO3 (Homo sapiens) (O14730 whole entry): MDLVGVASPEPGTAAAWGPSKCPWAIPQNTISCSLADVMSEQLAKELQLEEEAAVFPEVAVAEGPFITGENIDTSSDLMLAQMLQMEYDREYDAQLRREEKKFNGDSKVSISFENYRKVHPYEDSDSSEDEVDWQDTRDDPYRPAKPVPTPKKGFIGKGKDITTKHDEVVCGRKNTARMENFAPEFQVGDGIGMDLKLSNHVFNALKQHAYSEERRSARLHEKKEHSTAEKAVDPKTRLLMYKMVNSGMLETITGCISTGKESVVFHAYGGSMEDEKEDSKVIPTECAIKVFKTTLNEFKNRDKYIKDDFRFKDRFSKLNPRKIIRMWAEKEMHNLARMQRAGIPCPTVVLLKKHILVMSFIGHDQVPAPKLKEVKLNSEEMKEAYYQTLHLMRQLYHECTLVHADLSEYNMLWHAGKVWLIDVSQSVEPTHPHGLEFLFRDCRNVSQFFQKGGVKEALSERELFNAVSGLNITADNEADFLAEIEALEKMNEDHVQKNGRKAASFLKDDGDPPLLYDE

[6] = biological target: Serine/threonine-protein kinase MARK2 (Homo sapiens) (UniProt Q7KZI7); test: Inhibition of MARK2 (unknown origin) at 1 uM by Ambit Kinomescan binding assay relative to control
Sequence of Serine/threonine-protein kinase MARK2 (Homo sapiens) (Q7KZI7 whole entry): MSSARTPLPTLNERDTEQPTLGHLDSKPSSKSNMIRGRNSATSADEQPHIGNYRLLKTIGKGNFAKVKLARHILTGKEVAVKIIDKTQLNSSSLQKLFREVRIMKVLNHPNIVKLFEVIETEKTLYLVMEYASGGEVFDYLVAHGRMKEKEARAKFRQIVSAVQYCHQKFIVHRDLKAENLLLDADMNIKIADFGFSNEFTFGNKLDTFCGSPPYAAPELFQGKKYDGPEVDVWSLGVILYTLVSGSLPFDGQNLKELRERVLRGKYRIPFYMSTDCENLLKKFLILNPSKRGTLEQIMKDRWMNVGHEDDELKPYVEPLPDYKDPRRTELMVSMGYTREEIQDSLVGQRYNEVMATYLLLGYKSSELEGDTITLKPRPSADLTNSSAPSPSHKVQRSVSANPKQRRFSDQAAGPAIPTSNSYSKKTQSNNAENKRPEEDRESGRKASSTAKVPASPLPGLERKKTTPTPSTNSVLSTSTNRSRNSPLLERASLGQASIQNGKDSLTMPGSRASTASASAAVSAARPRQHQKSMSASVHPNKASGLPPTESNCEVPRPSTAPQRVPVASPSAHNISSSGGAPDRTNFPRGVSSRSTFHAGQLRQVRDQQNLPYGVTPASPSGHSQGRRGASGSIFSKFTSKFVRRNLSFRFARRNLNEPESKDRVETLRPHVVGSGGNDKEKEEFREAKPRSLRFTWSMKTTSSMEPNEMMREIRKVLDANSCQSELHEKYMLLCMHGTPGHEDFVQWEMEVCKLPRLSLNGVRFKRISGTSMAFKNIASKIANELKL

[7] = biological target: Insulin-like growth factor 1 receptor (Homo sapiens) (UniProt P08069); test: Inhibition of IGF1R (unknown origin) at 10 uM by Ambit Kinomescan binding assay
Sequence of Insulin-like growth factor 1 receptor (Homo sapiens) (P08069 31-736 limits assumed): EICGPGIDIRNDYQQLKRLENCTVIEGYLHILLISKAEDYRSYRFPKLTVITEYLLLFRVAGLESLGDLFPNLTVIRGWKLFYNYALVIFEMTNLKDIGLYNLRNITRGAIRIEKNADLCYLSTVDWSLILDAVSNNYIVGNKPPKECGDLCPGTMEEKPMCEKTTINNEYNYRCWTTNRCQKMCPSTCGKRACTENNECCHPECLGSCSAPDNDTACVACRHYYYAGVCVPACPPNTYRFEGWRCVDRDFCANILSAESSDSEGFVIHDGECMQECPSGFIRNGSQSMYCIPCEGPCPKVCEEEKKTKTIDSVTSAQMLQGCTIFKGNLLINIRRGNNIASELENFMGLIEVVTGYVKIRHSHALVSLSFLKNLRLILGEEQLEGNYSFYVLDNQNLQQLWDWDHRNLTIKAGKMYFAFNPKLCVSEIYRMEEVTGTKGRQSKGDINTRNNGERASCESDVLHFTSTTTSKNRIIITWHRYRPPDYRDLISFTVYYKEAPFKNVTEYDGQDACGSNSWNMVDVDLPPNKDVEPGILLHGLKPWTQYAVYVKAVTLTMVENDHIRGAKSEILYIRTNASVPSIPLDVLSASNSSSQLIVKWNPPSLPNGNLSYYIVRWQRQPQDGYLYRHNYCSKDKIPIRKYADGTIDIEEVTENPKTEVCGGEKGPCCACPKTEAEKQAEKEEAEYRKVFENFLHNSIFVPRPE
Sequence of Insulin-like growth factor 1 receptor (Homo sapiens) (P08069 741-1367 limits assumed): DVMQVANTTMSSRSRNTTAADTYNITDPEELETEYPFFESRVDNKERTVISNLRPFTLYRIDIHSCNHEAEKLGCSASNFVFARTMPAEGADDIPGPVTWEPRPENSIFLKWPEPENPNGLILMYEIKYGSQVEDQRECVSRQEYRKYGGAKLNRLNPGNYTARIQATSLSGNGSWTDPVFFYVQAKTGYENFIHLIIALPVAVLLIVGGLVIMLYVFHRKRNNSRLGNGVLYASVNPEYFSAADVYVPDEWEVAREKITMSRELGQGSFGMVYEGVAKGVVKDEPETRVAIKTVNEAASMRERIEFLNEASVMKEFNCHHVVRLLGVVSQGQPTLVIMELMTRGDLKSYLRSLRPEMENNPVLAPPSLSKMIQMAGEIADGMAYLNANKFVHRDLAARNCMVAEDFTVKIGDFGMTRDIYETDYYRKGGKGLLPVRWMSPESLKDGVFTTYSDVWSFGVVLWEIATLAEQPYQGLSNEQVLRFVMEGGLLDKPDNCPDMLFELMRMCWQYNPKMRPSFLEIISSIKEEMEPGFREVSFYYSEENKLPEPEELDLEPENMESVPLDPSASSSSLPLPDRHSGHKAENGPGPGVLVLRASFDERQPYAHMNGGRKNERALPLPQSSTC

[8] = biological target: Phosphatidylinositol 4,5-bisphosphate 3-kinase catalytic subunit beta isoform (Homo sapiens) (UniProt P42338); test: Inhibition of PIK3CB (unknown origin) at 10 uM by Ambit Kinomescan binding assay
[9] = biological target: T2, Scaffold protein ILK (Homo sapiens); test: Inhibition of ILK ACT labeling site in human Huh-7 cells at 10 uM by KiNativ Profiling analysis relative to control; assay type: cell-based
[10] = biological target: 5'-AMP-activated protein kinase catalytic subunit alpha-1 (Homo sapiens) (UniProt Q13131); test: Inhibition of AMPKa1 ATP labeling site in human Huh-7 cells at 10 uM by KiNativ Profiling analysis relative to control; assay type: cell-based
[11] = biological target: MAP kinase-activated protein kinase 2 (Homo sapiens) (UniProt P49137); test: Inhibition of MAPKAPK2 (unknown origin) at 10 uM by Ambit Kinomescan binding assay
Sequence of MAP kinase-activated protein kinase 2 (Homo sapiens) (P49137 whole entry, looked up): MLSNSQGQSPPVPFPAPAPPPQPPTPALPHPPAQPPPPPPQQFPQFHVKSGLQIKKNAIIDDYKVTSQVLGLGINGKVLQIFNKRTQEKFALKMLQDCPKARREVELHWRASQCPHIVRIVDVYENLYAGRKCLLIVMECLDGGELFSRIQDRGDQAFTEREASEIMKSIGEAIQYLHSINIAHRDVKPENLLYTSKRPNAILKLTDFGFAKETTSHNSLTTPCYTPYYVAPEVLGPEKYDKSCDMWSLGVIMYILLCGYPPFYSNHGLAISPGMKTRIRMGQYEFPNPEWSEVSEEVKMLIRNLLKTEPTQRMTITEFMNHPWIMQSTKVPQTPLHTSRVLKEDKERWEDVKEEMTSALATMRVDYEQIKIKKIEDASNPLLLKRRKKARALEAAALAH

[12] = biological target: T3, Serine/threonine-protein kinase D3 (Homo sapiens) (UniProt O94806); test: Inhibition of PKD3 Lys2 labeling site in human Huh-7 cell lysate at 1 uM by KiNativ Profiling analysis relative to control; assay type: subcellular
T3 sequence (whole entry): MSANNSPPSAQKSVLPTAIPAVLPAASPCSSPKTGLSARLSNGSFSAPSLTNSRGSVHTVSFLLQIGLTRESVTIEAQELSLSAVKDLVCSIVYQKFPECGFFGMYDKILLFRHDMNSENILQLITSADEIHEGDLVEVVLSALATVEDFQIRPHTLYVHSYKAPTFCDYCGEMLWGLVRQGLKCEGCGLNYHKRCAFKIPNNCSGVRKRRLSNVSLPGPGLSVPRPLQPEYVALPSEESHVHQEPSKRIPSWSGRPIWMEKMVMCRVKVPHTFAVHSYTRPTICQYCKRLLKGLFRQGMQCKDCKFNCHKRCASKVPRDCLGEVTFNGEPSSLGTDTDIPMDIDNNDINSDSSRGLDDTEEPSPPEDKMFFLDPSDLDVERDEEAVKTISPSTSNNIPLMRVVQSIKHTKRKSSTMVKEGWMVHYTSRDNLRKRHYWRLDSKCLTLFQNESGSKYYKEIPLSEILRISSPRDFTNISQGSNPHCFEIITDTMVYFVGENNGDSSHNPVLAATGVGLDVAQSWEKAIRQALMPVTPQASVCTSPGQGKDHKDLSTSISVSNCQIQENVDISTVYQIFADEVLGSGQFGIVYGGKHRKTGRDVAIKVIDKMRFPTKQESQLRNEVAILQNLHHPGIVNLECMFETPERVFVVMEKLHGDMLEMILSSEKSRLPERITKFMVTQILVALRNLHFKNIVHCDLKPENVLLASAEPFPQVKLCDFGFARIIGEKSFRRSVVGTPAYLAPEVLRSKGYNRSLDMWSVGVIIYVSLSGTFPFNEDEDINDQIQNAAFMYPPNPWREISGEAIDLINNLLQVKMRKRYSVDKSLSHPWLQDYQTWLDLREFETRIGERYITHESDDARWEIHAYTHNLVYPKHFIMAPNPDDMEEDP

[13] = biological target: Ribosomal protein S6 kinase alpha-3 (Homo sapiens) (UniProt P51812); test: Inhibition of RSK2 domain1 Lys2 labeling site in human Huh-7 cell lysate at 1 uM by KiNativ Profiling analysis relative to control; assay type: subcellular
Sequence of Ribosomal protein S6 kinase alpha-3 (Homo sapiens) (P51812 whole entry, the tested form may be a part): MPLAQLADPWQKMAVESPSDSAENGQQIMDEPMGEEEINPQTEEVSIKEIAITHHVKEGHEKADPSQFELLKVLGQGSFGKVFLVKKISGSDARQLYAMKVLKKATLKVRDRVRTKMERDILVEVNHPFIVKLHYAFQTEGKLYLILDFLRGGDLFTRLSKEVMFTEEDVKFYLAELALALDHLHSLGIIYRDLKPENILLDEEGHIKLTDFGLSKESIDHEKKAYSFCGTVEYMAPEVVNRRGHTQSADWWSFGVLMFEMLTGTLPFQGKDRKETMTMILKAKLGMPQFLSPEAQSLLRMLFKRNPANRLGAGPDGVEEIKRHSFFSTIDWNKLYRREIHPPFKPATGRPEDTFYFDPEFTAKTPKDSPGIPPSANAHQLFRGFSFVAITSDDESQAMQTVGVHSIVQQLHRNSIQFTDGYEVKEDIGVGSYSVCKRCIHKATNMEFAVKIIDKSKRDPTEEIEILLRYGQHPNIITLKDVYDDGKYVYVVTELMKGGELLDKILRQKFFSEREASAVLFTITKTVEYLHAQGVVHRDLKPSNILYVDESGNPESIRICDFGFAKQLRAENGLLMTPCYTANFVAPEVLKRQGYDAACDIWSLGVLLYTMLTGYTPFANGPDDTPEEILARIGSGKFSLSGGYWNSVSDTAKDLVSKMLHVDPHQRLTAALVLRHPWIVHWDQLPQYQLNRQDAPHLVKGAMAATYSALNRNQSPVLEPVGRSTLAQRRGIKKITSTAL

[14] = biological target: Phosphatidylinositol 4-kinase alpha (Homo sapiens) (UniProt P42356); test: Inhibition of PI4KA ATP labeling site in human Huh-7 cell lysate at 1 uM by KiNativ Profiling analysis relative to control; assay type: subcellular

## CCN1CCN(Cc2ccc(NC(=O)c3ccc(C)c(/C=C/c4cnc5[nH]ccc5c4OC)c3)cc2C(F)(F)F)CC1
[1]
  inhibition: 18.5%
[2]
  residual activity: 7.4%
[3]
  inhibition: 8.2%
[4]
  inhibition: 3.9%
[5]
  inhibition: 27%
[6]
  inhibition: 59%

## CCN1CCN(Cc2ccc(NC(=O)c3ccc(C)c(Oc4ccnc5[nH]ccc45)c3)cc2C(F)(F)F)CC1
[7]
  inhibition: inactive
[8]
  inhibition: inactive
[9]
  inhibition: -1.1%
[10]
  inhibition: 14%
[11]
  inhibition: inactive

## CNc1cc(Oc2cc(C(=O)Nc3cc(N4CCN(C)CC4)cc(C(F)(F)F)c3)ccc2C)ncn1
[12]
  inhibition: 12.4%
[13]
  inhibition: 20.7%
[14]
  inhibition: 2%
